Earlier results in patent US8211469B2, “Use of block copolymers based on vinyllactams and vinyl acetate as solubilizers” (priority 2006, dated 2012).

Conditions: 20° C.

Compound: Fc1ccc([C@]2(Cn3cncn3)O[C@H]2c2ccccc2Cl)cc1 (racemic) [Epoxyconazole]
- Solubility in water: 6.63*10^−4 g/100 ml
